Results on eight compounds are retold here after patent US8349883B2, “Hydroxamate-based inhibitors of deacetylases B” (Novartis AG, priority 2008, dated 2013).

Each structure is given as a SMILES string.

The subject of experiment [1] is HCT116. Briefly: HCT116 IC50. It is filed as cell-based. Conditions: Homo sapiens, HCT-116.
For experiment [2], the target named is T1, HDAC-1 (Homo sapiens, UniProt Q13547).
T1 construct: made in house; host or cells: Sf9 or Sf21 insect cells (baculovirus, donor vector pFB-GSTX3)
T1 sequence (Q13547 whole entry, species assumed): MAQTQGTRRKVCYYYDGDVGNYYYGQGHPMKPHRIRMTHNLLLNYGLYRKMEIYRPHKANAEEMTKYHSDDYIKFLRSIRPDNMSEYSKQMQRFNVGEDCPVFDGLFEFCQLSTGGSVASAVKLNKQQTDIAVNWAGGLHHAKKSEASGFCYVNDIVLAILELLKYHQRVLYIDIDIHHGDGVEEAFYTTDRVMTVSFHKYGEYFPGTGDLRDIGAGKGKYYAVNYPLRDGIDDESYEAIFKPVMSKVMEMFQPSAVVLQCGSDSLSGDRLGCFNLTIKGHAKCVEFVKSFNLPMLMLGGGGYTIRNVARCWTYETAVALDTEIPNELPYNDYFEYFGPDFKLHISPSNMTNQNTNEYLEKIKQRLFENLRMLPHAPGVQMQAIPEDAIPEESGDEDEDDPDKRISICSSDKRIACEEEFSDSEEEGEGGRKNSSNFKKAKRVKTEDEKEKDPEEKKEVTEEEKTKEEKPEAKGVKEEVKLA
Briefly: HDAC inhibition assay (purified GST-HDAC protein). Type of experiment: biochemical.

Regarding `O=C(/C=C/c1ccc([C@@H]2CCCN2CCc2nnnn2-c2ccc([N+](=O)[O-])cc2)cc1)NO` [Compound 107, (E)-N-Hydroxy-3-[4-((S)-1-{2-[1-(4-nitro-phenyl)-1H-tetrazol-5-yl]-ethyl}-pyrrolidin-2-yl)-phenyl]-acrylamide], the values for the IC50 in experiment [1] and in experiment [2] were 540 nM and 170 nM, respectively.

`CC(C)CCN1CCCC1c1ccc(/C=C/C(=O)NO)cc1` (stereo not shown) [Compound 36, (E)-N-Hydroxy-3-{4-[1-(3-methyl-butyl)-pyrrolidin-2-yl]-phenyl}-acrylamide]: the IC50 (as a rule, the concentration needed to halve the response being measured) came out at 40 nM in experiment [1] and 10 nM in experiment [2].

As to `O=C(/C=C/c1ccc([C@@H]2CCCN2CCc2c(-c3cnccn3)nn3ccccc23)cc1)NO` [Compound 49, (E)-N-Hydroxy-3-(4-{(S)-1-[2-(2-pyrazin-2-yl-pyrazolo[1,5-a]pyridin-3-yl)-ethyl]-pyrrolidin-2-yl}-phenyl)-acrylamide], the IC50 in experiment [1] and in experiment [2] was 3 nM in each case.

With `O=C(/C=C/c1ccc(C2CCCN2CC(O)c2ccc(Cl)cc2)cc1)NO` (stereo not shown) [Compound 31, (E)-3-(4-{1-[2-(4-Chloro-phenyl)-2-hydroxy-ethyl]-pyrrolidin-2-yl}-phenyl)-N-hydroxy-acrylamide], the IC50 in experiment [1] came to 67 nM; in experiment [2], 5 nM.

Consider `CC(C)n1nnc(CCN2CCC[C@H]2c2ccc(/C=C/C(=O)NO)cc2)n1` [Compound 101, (E)-N-Hydroxy-3-(4-{(S)-1-[2-(2-isopropyl-2H-tetrazol-5-yl)-ethyl]-pyrrolidin-2-yl}-phenyl)-acrylamide], for which the values for the IC50 in experiment [1] and in experiment [2] were 160 nM and 58 nM, respectively.

As to `O=C(/C=C/c1ccc([C@@H]2CCCN2CCc2cnn3ccccc23)c(F)c1)NO` [Compound 91, (E)-3-{3-Fluoro-4-[(S)-1-(2-pyrazolo[1,5-a]pyridin-3-yl-ethyl)-pyrrolidin-2-yl]-phenyl}-N-hydroxy-acrylamide], the IC50 was found to be 2 nM in experiment [1] and 4 nM in experiment [2].

As for `O=C(/C=C/c1ccc([C@@H]2CCCN2CCc2nnn(-c3ccc([N+](=O)[O-])cc3)n2)cc1)NO` [Compound 106, (E)-N-Hydroxy-3-[4-((S)-1-{2-[2-(4-nitro-phenyl)-2H-tetrazol-5-yl]-ethyl}-pyrrolidin-2-yl)-phenyl]-acrylamide], the IC50 amounted to 180 nM in experiment [1] and 67 nM in experiment [2].

For the compound `Cc1[nH]nc(C(C)(C)C)c1CCN1CCC[C@H]1c1ccc(/C=C/C(=O)NO)cc1` [Compound 100, (E)-3-(4-{(S)-1-[2-(3-tert-Butyl-5-methyl-1H-pyrazol-4-yl)-ethyl]-pyrrolidin-2-yl}-phenyl)-N-hydroxy-acrylamide], the IC50 is 0.5 nM in experiment [1] and 1 nM in experiment [2].
